Consider 6 compounds from PubChem BioAssay AID2060600 (Molecular Pharmacology Branch, DTP, NCI, 2025).

The test relates to 996289-038-R-J1-PDC complex spheroid viability. Nature of the test: Anticancer human tumor 996289-038-R-J1-PDC patient-derived colon adenocarcinoma cell line growth inhibition [CLK]. The conditions noted are these: for viability, T/C: stronger effect = lower value. The gist of the method:
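Multi-cell-type spheroids combined patient-derived tumor cells with HUVEC endothelial cells and human mesenchymal stem cells. Paired agents were dosed in half-log steps down from about clinical Cmax, or from 10 microM where Cmax was unknown.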

[1] abbreviates: curve of first compound, second compound 0.0316 µM.
[2] abbreviates: curve of first compound, second compound 0.1 µM.
[3] abbreviates: curve of first compound, second compound 0.316 µM.
The mark [4] stands for this setting: curve of first compound, second compound 1 µM.
Where [5] appears, read: curve of first compound, second compound 3.16 µM.
Where [6] appears, read: curve of first compound, second compound 10 µM.
Setting [7] is: second compound 0.0316 µM, first compound 0.0316 µM.
Setting [8] is: second compound 0.0316 µM, first compound 0.1 µM.
The mark [9] stands for this setting: second compound 0.1 µM, first compound 0.0316 µM.
Setting [10] is: second compound 0.1 µM, first compound 0.1 µM.
[11] abbreviates: second compound 0.316 µM, first compound 0.0316 µM.
The mark [12] stands for this setting: second compound 0.316 µM, first compound 0.1 µM.
Setting [13] is: second compound 1 µM, first compound 0.0316 µM.
Setting [14] is: second compound 1 µM, first compound 0.1 µM.
Setting [15] is: second compound 3.16 µM, first compound 0.0316 µM.
The mark [16] stands for this setting: second compound 3.16 µM, first compound 0.1 µM.
The mark [17] stands for this setting: second compound 10 µM, first compound 0.0316 µM.
Where [18] appears, read: second compound 10 µM, first compound 0.1 µM.

Where “and” joins values, the source holds several entries; their conditions need not be identical. Identical values can stand only once. Where only a bound is given, the exact number is not on record here.
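Note: spheroids exposed to the agents for 7 days before readout.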

A word on the IC50: it is the concentration that inhibits the measured activity by half. One may read the viability, T/C as the ratio of treated to control. Regarding `Cn1ncnc1[C@H]1c2n[nH]c(=O)c3cc(F)cc(c23)N[C@@H]1c1ccc(F)cc1` + CNC(=O)c1ccc(Nc2nc(OC3CCCC3)c3c(-c4ccc5nc(C)oc5c4)c[nH]c3n2)c(OC)c1, the IC50 under setting [1] was greater than 0.1 µM; the IC50 under setting [2] is greater than 0.1 µM; the IC50 under setting [3] is greater than 0.1 µM; the IC50 under setting [4] is greater than 0.1 µM; the IC50 under setting [5] was greater than 0.1 µM; the IC50 under setting [6] is greater than 0.1 µM. Also, the viability, T/C is 127% (second compound 0.0316 µM, first compound 0.000316 µM); 114% (second compound 0.0316 µM, first compound 0.001 µM); 118% (second compound 0.0316 µM, first compound 0.00316 µM); 124% (second compound 0.0316 µM, first compound 0.01 µM); 133% under setting [7]; 108% under setting [8]. Moreover, the viability, T/C is 127% (second compound 0.1 µM, first compound 0.000316 µM); 124% (second compound 0.1 µM, first compound 0.001 µM); 128% (second compound 0.1 µM, first compound 0.00316 µM); 134% (second compound 0.1 µM, first compound 0.01 µM); 124% under setting [9]; 105% under setting [10]. In addition, the viability, T/C runs as follows: (second compound 0.316 µM, first compound 0.000316 µM) 86.6%; (second compound 0.316 µM, first compound 0.001 µM) 80.5%; (second compound 0.316 µM, first compound 0.00316 µM) 81.6%; (second compound 0.316 µM, first compound 0.01 µM) 78.8%; under setting [11], 80.9%; under setting [12], 74.9%. Also, the viability, T/C is 74.8% (second compound 1 µM, first compound 0.000316 µM); 67.4% (second compound 1 µM, first compound 0.001 µM); 65.7% (second compound 1 µM, first compound 0.00316 µM); 64% (second compound 1 µM, first compound 0.01 µM); 65.5% under setting [13]; 58.6% under setting [14]. The viability, T/C reads like this: (second compound 3.16 µM, first compound 0.000316 µM) 63.7%; (second compound 3.16 µM, first compound 0.001 µM) 59.3%; (second compound 3.16 µM, first compound 0.00316 µM) 59%; (second compound 3.16 µM, first compound 0.01 µM) 58.5%; under setting [15], 63.7%; under setting [16], 55%. Besides, the viability, T/C runs as follows: (second compound 10 µM, first compound 0.000316 µM) 66.1%; (second compound 10 µM, first compound 0.001 µM) 60.4%; (second compound 10 µM, first compound 0.00316 µM) 59.7%; (second compound 10 µM, first compound 0.01 µM) 63%; under setting [17], 63%; under setting [18], 55.7%.

With `CCN1CCN(Cc2ccc(Nc3ncc(F)c(-c4cc(F)c5nc(C)n(C(C)C)c5c4)n3)nc2)CC1`, the viability, T/C is, setting by setting: (compound 0.00316 µM) 93.4% and 99.5%; (compound 0.01 µM) 98.7% and 84%; (compound 0.0316 µM) 92.3% and 99.6%; (compound 0.1 µM) 91.2% and 96.8%; (compound 0.316 µM) 86.5% and 94.9%; (compound 1 µM) 86.9% and 95%. Also, the IC50 (curve of compound) is greater than 1 µM.

Regarding `CN1CCN(c2cc(C(=O)Nc3cc4cc(-c5cnn(C)c5)ccc4cn3)ccn2)CC1`, the viability, T/C is 102% [middle of 12 runs] (compound 0.0316 µM); 95.1% [middle of 12 runs] (compound 0.1 µM); 71.7% [middle of 12 runs] (compound 0.316 µM); 4.43% [middle of 11 runs] (compound 1 µM); 1.12% [middle of 11 runs] (compound 3.16 µM); 0.43% [middle of 9 runs] (compound 10 µM). The IC50 (compound alone, run of 08/14/2023) was 461 nM [middle of 10 runs].

As for `O=C(c1cc(Cc2n[nH]c(=O)c3ccccc23)ccc1F)N1CCN(C(=O)C2CC2)CC1`, the viability, T/C (compound 0.0316 µM) was 99.9% and 109%; the viability, T/C (compound 0.1 µM) is 98.6% and 86.6%; the viability, T/C (compound 0.316 µM) is 103% and 108%; the viability, T/C (compound 1 µM) was 99.1% and 105%; the viability, T/C (compound 3.16 µM) was 105% and 113%; the viability, T/C (compound 10 µM) is 93.9% and 104%. For the same compound, for the setting “curve of compound”, the IC50 was greater than 10 µM.

In the case of `CCCS(=O)(=O)Nc1ccc(F)c(C(=O)c2c[nH]c3ncc(-c4ccc(Cl)cc4)cc23)c1F`, the viability, T/C runs as follows: (compound 0.0316 µM) 95.8% and 104%; (compound 0.1 µM) 87.2% and 87.3%; (compound 0.316 µM) 94.7% and 101%; (compound 1 µM) 103% and 110%; (compound 3.16 µM) 94.8% and 101%; (compound 10 µM) 77.8% and 67.8%. Where the note is “curve of compound”, the 50% inhibitory concentration (IC50) is greater than 10 µM.

In the case of `O=C(c1cc(Cc2n[nH]c(=O)c3ccccc23)ccc1F)N1CCN(C(=O)C2CC2)CC1` + CNC(=O)c1ccc(Nc2nc(OC3CCCC3)c3c(-c4ccc5nc(C)oc5c4)c[nH]c3n2)c(OC)c1, the IC50 runs as follows: under setting [1], greater than 10 µM; under setting [2], greater than 10 µM; under setting [3], greater than 10 µM; under setting [4], greater than 10 µM; under setting [5], greater than 10 µM; under setting [6], greater than 10 µM. The viability, T/C under setting [7] is 126%; the viability, T/C under setting [8] was 113%; the viability, T/C (second compound 0.0316 µM, first compound 0.316 µM) was 113%; the viability, T/C (second compound 0.0316 µM, first compound 1 µM) was 124%; the viability, T/C (second compound 0.0316 µM, first compound 3.16 µM) was 120%; the viability, T/C (second compound 0.0316 µM, first compound 10 µM) is 103%. Moreover, the viability, T/C was 122% under setting [9]; 121% under setting [10]; 116% (second compound 0.1 µM, first compound 0.316 µM); 117% (second compound 0.1 µM, first compound 1 µM); 114% (second compound 0.1 µM, first compound 3.16 µM); 115% (second compound 0.1 µM, first compound 10 µM). Further, the viability, T/C was 78.9% under setting [11]; 74.4% under setting [12]; 76.3% (second compound 0.316 µM, first compound 0.316 µM); 75.4% (second compound 0.316 µM, first compound 1 µM); 85.3% (second compound 0.316 µM, first compound 3.16 µM); 71.3% (second compound 0.316 µM, first compound 10 µM). For the same compound, the viability, T/C by setting is: under setting [13], 70.8%; under setting [14], 65.8%; (second compound 1 µM, first compound 0.316 µM) 64%; (second compound 1 µM, first compound 1 µM) 60.6%; (second compound 1 µM, first compound 3.16 µM) 69.3%; (second compound 1 µM, first compound 10 µM) 61.3%. The viability, T/C reads like this: under setting [15], 62.6%; under setting [16], 57.5%; (second compound 3.16 µM, first compound 0.316 µM) 58.1%; (second compound 3.16 µM, first compound 1 µM) 60.2%; (second compound 3.16 µM, first compound 3.16 µM) 64%; (second compound 3.16 µM, first compound 10 µM) 58.5%. For the same compound, the viability, T/C is 62.6% under setting [17]; 59.4% under setting [18]; 61% (second compound 10 µM, first compound 0.316 µM); 58.3% (second compound 10 µM, first compound 1 µM); 61.1% (second compound 10 µM, first compound 3.16 µM); 52.1% (second compound 10 µM, first compound 10 µM).
